Like-named read-outs stand apart in the source and are kept apart here. Marks after values point to notes of the source that are not given here. Residues, ends and D or L forms follow the SMILES beside them.
How the values were obtained:
[1] = Hematology of rats at the end of treatment; format: in vivo, Sprague-Dawley rats; details: median (IQR)
[2] = for Cmax: 20-min i.v. infusion, n=12, estimate (SE); for AUCτ / λz: i.v. infusion, n=12, pooled
[3] = Coagulation in rats at the end of treatment; format: in vivo, Sprague-Dawley rats; details: median (IQR)

## CC[C@H](C)[C@@H]1NC(=O)[C@@H]2CSSC[C@H](NC(=O)[C@H](CCCNC(=N)N)NC(=O)[C@@H]3CSSC[C@H](NC1=O)C(=O)N[C@@H]([C@@H](C)O)C(=O)N[C@@H](CCCNC(=N)N)C(=O)NCC(=O)N[C@@H](Cc1ccccc1)C(=O)N3)C(=O)N[C@@H](CC(C)C)C(=O)N[C@H]1CSSC[C@H](NC(=O)[C@H](C(C)C)NC(=O)CNC(=O)[C@H](CCCNC(=N)N)NC(=O)[C@H](CCCNC(=N)N)NC1=O)C(=O)N[C@@H](CCCNC(=N)N)C(=O)N2 [RTD-1, Rhesus theta (θ) defensin-1] (HELM PEPTIDE1{G.F.C.R.C.L.C.R.R.G.V.C.R.C.I.C.T.R}$PEPTIDE1,PEPTIDE1,3:R3-16:R3|PEPTIDE1,PEPTIDE1,5:R3-14:R3|PEPTIDE1,PEPTIDE1,7:R3-12:R3|PEPTIDE1,PEPTIDE1,1:R1-18:R2$$$V2.0)
[1]; female, 5 mg/kg/day
  Basophils, absolute: 0.02 (0.02) 10^3/mm^3
  Eosinophils, absolute: 0.30 (0.23) 10^3/mm^3
  HDW: 2.37 (0.16) g/dL
  Hematocrits: 40.50 (1.90) %
  Hemoglobin: 13.50 (1.00) g/dL
  LUC, absolute: 0.02 (0.03) 10^3/mm^3
  Lymphocytes, absolute: 4.78 (3.21) 10^3/mm^3
  MCH: 19.10 (1.00) pg
  MCHC: 33.40 (0.40) g/dL
  MCV: 57.90 (2.80) fL
  Monocytes, absolute: 0.17 (0.08) 10^3/mm^3
  Neutrophils, absolute: 1.33 (0.99) 10^3/mm^3
  Platelets: 801.00 (306.00) 10^3/mm^3
  RBC: 6.88 (0.33) 10^6/mm^3
  RDW: 12.70 (0.80) %
  Reticulocytes, absolute: 256.70 (53.50) 10^3/mm^3
  WBC: 6.50 (3.50) 10^3/mm^3
[1]; female, 10 mg/kg/day
  Basophils, absolute: 0.04 (0.02) 10^3/mm^3
  Eosinophils, absolute: 0.33 (0.14) 10^3/mm^3
  HDW: 2.45 (0.16) g/dL
  Hematocrits: 41.15 (1.83) %
  Hemoglobin: 13.70 (0.38) g/dL
  LUC, absolute: 0.04 (0.03) 10^3/mm^3
  Lymphocytes, absolute: 7.13 (1.76)^c 10^3/mm^3
  MCH: 18.95 (0.45) pg
  MCHC: 33.25 (0.35) g/dL
  MCV: 57.30 (2.43) fL
  Monocytes, absolute: 0.39 (0.13)^c^,^d 10^3/mm^3
  Neutrophils, absolute: 2.18 (1.30) 10^3/mm^3
  Platelets: 939.00 (314.75) 10^3/mm^3
  RBC: 7.21 (0.40) 10^6/mm^3
  RDW: 12.95 (0.40) %
  Reticulocytes, absolute: 277.25 (42.00) 10^3/mm^3
  WBC: 10.75 (3.68)^c 10^3/mm^3
[1]; female, 20 mg/kg, day 2
  Basophils, absolute: 0.06 (0.06) 10^3/mm^3
  Eosinophils, absolute: 0.13 (0.06)^c^,^e 10^3/mm^3
  HDW: 2.37 (0.32) g/dL
  Hematocrits: 46.85 (14.28) %
  Hemoglobin: 15.15 (4.58) g/dL
  LUC, absolute: 0.05 (0.03) 10^3/mm^3
  Lymphocytes, absolute: 5.56 (2.93) 10^3/mm^3
  MCH: 19.60 (0.88) pg
  MCHC: 32.30 (0.30)^d^,^e g/dL
  MCV: 60.95 (2.18)^e fL
  Monocytes, absolute: 0.33 (0.26)^c 10^3/mm^3
  Neutrophils, absolute: 2.55 (2.72) 10^3/mm^3
  Platelets: 603.50 (524.00)^e 10^3/mm^3
  RBC: 7.63 (2.19) 10^6/mm^3
  RDW: 12.20 (0.57)^e %
  Reticulocytes, absolute: 325.95 (60.38)^c^,^d 10^3/mm^3
  WBC: 8.15 (5.70) 10^3/mm^3
[1]; male, 5 mg/kg/day
  Basophils, absolute: 0.03 (0.02) 10^3/mm^3
  Eosinophils, absolute: 0.37 (0.10) 10^3/mm^3
  HDW: 2.30 (0.09) g/dL
  Hematocrits: 43.75 (1.73) %
  Hemoglobin: 14.10 (0.98) g/dL
  LUC, absolute: 0.03 (0.02) 10^3/mm^3
  Lymphocytes, absolute: 6.03 (1.81) 10^3/mm^3
  MCH: 19.95 (1.35) pg
  MCHC: 32.10 (0.33) g/dL
  MCV: 61.75 (2.90) fL
  Monocytes, absolute: 0.22 (0.20) 10^3/mm^3
  Neutrophils, absolute: 2.04 (0.96) 10^3/mm^3
  Platelets: 1,052.00 (145.00) 10^3/mm^3
  RBC: 7.06 (0.23) 10^6/mm^3
  RDW: 13.95 (1.15) %
  Reticulocytes, absolute: 359.65 (38.03) 10^3/mm^3
  WBC: 8.40 (2.53) 10^3/mm^3
[1]; male, 10 mg/kg/day
  Basophils, absolute: 0.03 (0.02) 10^3/mm^3
  Eosinophils, absolute: 0.31 (0.24) 10^3/mm^3
  HDW: 2.20 (0.20) g/dL
  Hematocrits: 43.65 (1.20) %
  Hemoglobin: 14.20 (0.65) g/dL
  LUC, absolute: 0.03 (0.02) 10^3/mm^3
  Lymphocytes, absolute: 6.69 (2.92) 10^3/mm^3
  MCH: 20.20 (0.55) pg
  MCHC: 32.35 (0.72) g/dL
  MCV: 62.60 (3.05) fL
  Monocytes, absolute: 0.28 (0.10) 10^3/mm^3
  Neutrophils, absolute: 1.85 (0.61) 10^3/mm^3
  Platelets: 1,086.00 (192.25) 10^3/mm^3
  RBC: 7.06 (0.38) 10^6/mm^3
  RDW: 13.10 (1.13) %
  Reticulocytes, absolute: 314.20 (33.35)^c 10^3/mm^3
  WBC: 10.05 (3.28) 10^3/mm^3
[1]; male, 20 mg/kg, day 2
  Basophils, absolute: 0.03 (0.03) 10^3/mm^3
  Eosinophils, absolute: 0.15 (0.06)^c^,^d^,^e 10^3/mm^3
  HDW: 2.44 (0.25)^e g/dL
  Hematocrits: 37.30 (3.70)^d^,^e %
  Hemoglobin: 12.10 (1.00)^d^,^e g/dL
  LUC, absolute: 0.07 (0.05)^c^,^d^,^e 10^3/mm^3
  Lymphocytes, absolute: 4.24 (1.79)^d^,^e 10^3/mm^3
  MCH: 20.00 (0.60) pg
  MCHC: 31.80 (0.50) g/dL
  MCV: 62.50 (2.10) fL
  Monocytes, absolute: 0.93 (0.29)^c^,^d^,^e 10^3/mm^3
  Neutrophils, absolute: 8.40 (3.42)^c^,^d^,^e 10^3/mm^3
  Platelets: 728.00 (86.00)^c^,^d^,^e 10^3/mm^3
  RBC: 6.04 (0.47)^d^,^e 10^6/mm^3
  RDW: 14.30 (1.20) %
  Reticulocytes, absolute: 373.30 (106.50)^e 10^3/mm^3
  WBC: 13.70 (4.90)^c^,^d 10^3/mm^3
[2]; 5 mg/kg Day 1
  Cmax: 7,468 (1,202)^b ng/mL
  AUCτ: 14,956 ng · h/mL
  λz: 0.056 h⁻¹
[2]; 5 mg/kg Day 7
  AUCτ: 12,468 ng · h/mL
  λz: 0.104 h⁻¹
[2]; 5 mg/kg/day
  AUCτ on day 7 lower than AUC0-∞ on day 1: 22%
[2]; 10 mg/kg Day 1
  Cmax: 27,533 (1,419)* ng/mL
  AUCτ: 41,669 ng · h/mL
  λz: 0.148 h⁻¹
[2]; 10 mg/kg Day 7
  λz: 0.133 h⁻¹
[2]; 10 mg/kg/day
  AUCτ on day 7 lower than AUC0-∞ on day 1: 19%
[2]; 20 mg/kg Day 1
  Cmax: 35,400 (5,350)# ng/mL
  λz: 0.221 h⁻¹
[2]; all rats except one female at 10 mg/kg
  plasma levels during the recovery period (day 25): undetectable
[2]; single ascending dose
  increase in AUC0-∞ from 5 mg/kg to 20 mg/kg: 8 fold
[3]; female, 5 mg/kg
  APTT: 10.60 (0.70) s
  Fibrinogen: 223.00 (80.00) mg/dL
  PT: 16.30 (1.40) s
[3]; female, 10 mg/kg
  APTT: 10.85 (2.43) s
  Fibrinogen: 283.00 (36.50) mg/dL
  PT: 17.05 (0.60) s
[3]; female, 20 mg/kg, day 2
  APTT: 29.20 (20.65)^b^,^c^,^d s
  Fibrinogen: 83.00 (151.75)^d mg/dL
  PT: 23.45 (9.75)^b^,^c s
[3]; male, 5 mg/kg
  APTT: 14.80 (0.98) s
  Fibrinogen: 262.50 (9.00) mg/dL
  PT: 15.95 (0.50) s
[3]; male, 10 mg/kg
  APTT: 14.60 (1.05) s
  Fibrinogen: 261.00 (54.75) mg/dL
  PT: 17.50 (1.40) s
[3]; male, 20 mg/kg, day 2
  APTT: 18.50 (3.13)^b^,^c^,^d s
  Fibrinogen: 98.00 (18.50)^b^,^c^,^d mg/dL
  PT: 21.25 (1.40)^b^,^c s

Reference: article PMC8923172 (Antimicrobial Agents and Chemotherapy, 2022)
